From the NIST ThermoML archive (doi:10.1016/j.fluid.2016.02.011)

Experiment: refractive index (Na D-line) (dimensionless); xn = mol fraction of the nth substance listed
Conditions: 100 kPa, Liquid, minimum deviations angle

Brc1ccccc1 [bromobenzene] + CCCCCC[n+]1ccn(C)c1.O=S(=O)([N-]S(=O)(=O)C(F)(F)F)C(F)(F)F
Conditions	refractive index
282.96 K, x2 = 0.126	1.5213
282.97 K, x2 = 0.014	1.5558
282.97 K, x2 = 0.099	1.5287
283 K, x2 = 0	1.5612
283 K, x2 = 0.012	1.5566
283.05 K, x2 = 0.203	1.5043
284.39 K, x2 = 0.098	1.5279
284.4 K, x2 = 0	1.5605
284.53 K, x2 = 0.016	1.5545
284.53 K, x2 = 0.094	1.5291
284.67 K, x2 = 0.012	1.5558
284.89 K, x2 = 0.126	1.5204
285.06 K, x2 = 0.203	1.5035
285.53 K, x2 = 0.098	1.5273
285.73 K, x2 = 0.017	1.5534
285.73 K, x2 = 0.091	1.5294
285.75 K, x2 = 0	1.5598
286.57 K, x2 = 0.012	1.5548
286.96 K, x2 = 0	1.5591
286.98 K, x2 = 0.126	1.5195
287.01 K, x2 = 0.203	1.5027
287.53 K, x2 = 0.019	1.5516
287.53 K, x2 = 0.086	1.53
287.59 K, x2 = 0.098	1.5264
287.98 K, x2 = 0	1.5585
288.27 K, x2 = 0.012	1.5539
288.42 K, x2 = 0.021	1.5506
288.42 K, x2 = 0.083	1.5304
288.67 K, x2 = 0.085	1.5295
288.99 K, x2 = 0	1.558
289.12 K, x2 = 0.126	1.5186
289.13 K, x2 = 0.022	1.5497
289.13 K, x2 = 0.08	1.5307
289.18 K, x2 = 0.203	1.5018
289.79 K, x2 = 0.085	1.529
289.81 K, x2 = 0.098	1.5254
289.82 K, x2 = 0.024	1.5487
289.82 K, x2 = 0.077	1.5313
290.11 K, x2 = 0	1.5574
290.23 K, x2 = 0.012	1.5529
290.33 K, x2 = 0.026	1.5478
290.33 K, x2 = 0.074	1.5318
290.81 K, x2 = 0.085	1.5286
290.82 K, x2 = 0.027	1.547
290.82 K, x2 = 0.072	1.5324
290.87 K, x2 = 0.026	1.5473
291.09 K, x2 = 0.203	1.501
291.14 K, x2 = 0.126	1.5177
291.16 K, x2 = 0.029	1.5462
291.16 K, x2 = 0.069	1.533
291.22 K, x2 = 0	1.5568
291.34 K, x2 = 0.012	1.5524
291.44 K, x2 = 0.03	1.5456
291.44 K, x2 = 0.067	1.5336
291.49 K, x2 = 0.075	1.5311
291.54 K, x2 = 0.031	1.5453
291.54 K, x2 = 0.066	1.5338
291.64 K, x2 = 0.031	1.5451
291.64 K, x2 = 0.065	1.5341
291.71 K, x2 = 0.098	1.5245
291.74 K, x2 = 0.032	1.5448
291.74 K, x2 = 0.064	1.5343
291.83 K, x2 = 0.033	1.5445
291.83 K, x2 = 0.063	1.5346
291.91 K, x2 = 0.033	1.5442
291.91 K, x2 = 0.062	1.5349
291.98 K, x2 = 0.034	1.5439
291.98 K, x2 = 0.061	1.5351
292.03 K, x2 = 0.026	1.5467
292.04 K, x2 = 0.035	1.5436
292.04 K, x2 = 0.06	1.5354
292.08 K, x2 = 0.036	1.5433
292.08 K, x2 = 0.059	1.5356
292.14 K, x2 = 0.085	1.5279
292.15 K, x2 = 0.037	1.5428
292.15 K, x2 = 0.058	1.536
292.21 K, x2 = 0.038	1.5424
292.21 K, x2 = 0.056	1.5365
292.21 K, x2 = 0.075	1.5307
292.21 K, x2 = 0.126	1.5172
292.22 K, x2 = 0.203	1.5005
292.24 K, x2 = 0.039	1.5421
292.24 K, x2 = 0.055	1.5368
292.25 K, x2 = 0.039	1.5419
292.25 K, x2 = 0.055	1.5369
292.26 K, x2 = 0.04	1.5416
292.26 K, x2 = 0.054	1.5371
292.27 K, x2 = 0.041	1.5414
292.27 K, x2 = 0.053	1.5373
292.29 K, x2 = 0.042	1.541
292.29 K, x2 = 0.052	1.5378
292.3 K, x2 = 0.012	1.5518
292.3 K, x2 = 0.043	1.5407
292.3 K, x2 = 0.051	1.538
292.32 K, x2 = 0	1.5563
293.01 K, x2 = 0.085	1.5276
293.1 K, x2 = 0.026	1.5461
293.22 K, x2 = 0.126	1.5167
293.22 K, x2 = 0.203	1.5001
293.32 K, x2 = 0	1.5557
293.35 K, x2 = 0.041	1.5407
293.35 K, x2 = 0.06	1.5348
293.39 K, x2 = 0.012	1.5513
293.5 K, x2 = 0.075	1.5301
293.74 K, x2 = 0.098	1.5236
293.93 K, x2 = 0.085	1.5271
294.22 K, x2 = 0.026	1.5456
294.45 K, x2 = 0.041	1.5401
294.49 K, x2 = 0.06	1.5343
294.54 K, x2 = 0.075	1.5296
295.1 K, x2 = 0.085	1.5266
295.1 K, x2 = 0.098	1.523
295.32 K, x2 = 0.026	1.545
295.66 K, x2 = 0.06	1.5337
295.82 K, x2 = 0.041	1.5394
295.84 K, x2 = 0.075	1.529
296.86 K, x2 = 0.06	1.5331
297.11 K, x2 = 0.041	1.5388
297.16 K, x2 = 0.075	1.5284
297.94 K, x2 = 0.06	1.5325
298.49 K, x2 = 0.041	1.5381
298.64 K, x2 = 0.026	1.5433
298.7 K, x2 = 0.075	1.5277
299.03 K, x2 = 0.06	1.532
299.63 K, x2 = 0.041	1.5375
299.98 K, x2 = 0.06	1.5315
300.84 K, x2 = 0.041	1.5369
